From patent publication US8455666B1, “Vegetable oil esterified lipoic acid” (The United States of America, as represented by the …, priority 2011, dated 2013)

Assays:
[1] = Vesicle leakage (calcein-cobalt) assay; conditions: 37° C.
Experimental: Lipid Preparation and Formation of Unilamellar Phospholipid Vesicles. Lipid mixtures and vesicles were prepared as described previously (Laszlo et al. 2010. ibid). Lipids were prepared from appropriate amounts of DOPC in chloroform and LDOG-SS- or LDOG-SH (at 1- or 5-mol % of total lipids) in ethanol added to clean amber vials and then gently mixed. Solvents were removed under a stream of argon and then vacuum. The dried lipids were rehydrated in the appropriate buffer and mixed periodically to form multilamellar phospholipid vesicles. The vesicles were subjected to freeze-thaw cycles and then extrusion to form unilamellar vesicles (approx. 125 nm in diameter). Vesicles were covered with argon, protected from light and stored at 4° C. until used. DOPC vesicles incorporating 1- or 5-mol % ALA or DHLA were similarly produced.
Vesicle Leakage (Calcein-Cobalt). Vesicles with and without LDOG were evaluated for membrane integrity using a leakage assay described previously (Evans. Room-temperature ionic liquid cations act as short-chain surfactants and disintegrate a phospholipid bilayer. Colloid. Surface. A 2006, 274:11-17; and Laszlo et al. 2010. ibid). Briefly, the leakage assay was designed such that the low fluorescent signal of the entrapped calcein-cobalt complex increased as vesicles leaked their contents and cobalt was stripped from calcein by external EDTA. Vesicle leakage was monitored with a fluorometer. Samples were continuously stirred in 1-cm path length quartz cuvettes 37° C., with measurements taken for 30 min at 5-s intervals. Experiments were conducted in triplicate. Leakage percentage (L) was determined from the intensity of the fluorescent signal, 100×(Ft−Fo)/(Fmax−Fo), where Ft was the fluorescent signal over time, Fo was the extrapolated initial signal at time zero, and Fmax was the fluorescent signal at the end of the experiment after rupture by addition of Triton X-100 solution. The apparent rate constant k (ms^−1) and maximum extent of vesicle leakage (L∞), prior to vesicle rupture, were obtained by fitting to the equation: Lt=L∞(1−exp(−kt)).

[2] = Lipid peroxidation inhibition capacity assay (AAPH initiator, C11-Bodipy reporter); format: biochemical; conditions: for oxidation protection of DOPC vesicles (C11-Bodipy fluorescence): AAPH; for oxidation protection of DOPC vesicles (C11-Bodipy fluorescence) / antioxidant capacity compared with Trolox at the same concentration: in words
Experimental: Lipid Oxidation Inhibition. Lipid oxidation inhibition by LDOG was measured by the lipid peroxidation inhibition capacity assay, which employs AAPH as a free-radical initiator and the lipidic reporter molecule C11-Bodipy (Zhang et al., Lipid peroxidation inhibition capacity assay for antioxidants based on liposomal membranes. Mol. Nutr. Food Res. 2006, 50:714-724). C11-Bodipy fluoresces at 595 nm until it is oxidized, at which point its fluorescence shifts to ˜520 nm (Drummen et al., C11-bodipy581/591, an oxidation-sensitive fluorescent lipid peroxidation probe: (micro)spectroscopic characterization and validation of methodology. Free Radical Biol. Med. 2002, 33:473-490). Conditions for the assay using modified glycerides have been detailed previously (Laszlo et al. 2010. ibid). DOPC and C11-Bodipy were combined in a vial, dried to a film, and then rehydrated in 20 mM Tris-HCl, pH 7.4. When included, ALA, DHLA, LDOG-SS-, or LDOG-SH (at 1- or 5-mol % of total lipids) in ethanol were added prior to formation of vesicles. Unilamellar vesicles were prepared from rehydrated lipids as described above. Samples were diluted to a final concentration of 2.5 mM DOPC (2.4 μM C11-Bodipy) and allowed to equilibrate to 37° C. for 15 min prior to the introduction of AAPH. From the time of AAPH addition (40 mM final concentration), fluorescence intensity (excitation at 540 nm, emission at 595 nm) was measured every minute for 180 min. Experiments were conducted in triplicate at least. The relative fluorescence intensity was calculated by dividing the reading at each minute by the initial fluorescence at the beginning of the experiment (Ft/Fo). Background subtraction was accomplished using the appropriate vesicles without C11-Bodipy.
The water-soluble antioxidant Trolox was used for comparison. Trolox was combined with DOPC and C11-Bodipy, dried, and then rehydrated as described above. A final Trolox concentration range of 10 to 125 μM was employed. The peroxyl radical scavenging capacity of the test antioxidant relative to Trolox (i.e., the relative antioxidation activity) was calculated using the following equation
[formula] where AUCSample is the area under the fluorescence curve (AUC) for vesicles containing antioxidant, AUCTrolox is the area under the curve for vesicles containing 50 μM Trolox (thereby arbitrarily assigned a relative antioxidation activity value of 1.0), AUC0 is the area under the curve for vesicles containing only C11-Bodipy, and molSample is the molar concentration of the antioxidant (Naguib, A fluorometric method for measurement of peroxyl radical scavenging activities of lipophilic antioxidants. Anal. Biochem. 1998, 265:290-298). The AUC was calculated from the average of three different methods, those described by Cao and coworkers (Cao et al., Oxygen-radical absorbance capacity assay for antioxidants. Free Radical Biol. Med. 1993, 14:303-311), Naguib (Naguib, Antioxidant activities of astaxanthin and related carotenoids. J. Agric. Food. Chem. 2000, 48:1150-1154), and Zhang and coworkers (Zhang et al. 2006. ibid).

[3] = earlier study (Laszlo et al. 2010); cited from earlier work
[4] = antioxidant amount 1 mol % in DOPC vesicles
[5] = antioxidant amount 5 mol % in DOPC vesicles
[6] = concentration 25 μM, relative to 50 μM Trolox, DOPC vesicles, 37° C.
[7] = concentration 125 μM, relative to 50 μM Trolox, DOPC vesicles, 37° C.

Compound | leakage rate constant [1, 4] | leakage rate constant [1, 5] | relative antioxidant capacity [2, 6] | relative antioxidant capacity [2, 7] | oxidation protection of DOPC vesicles (C11-Bodipy fluorescence) ([2]; 37° C.) | antioxidant capacity compared with Trolox at the same concentration [2] | relative antioxidant capacity ([2]; concentration 10 μM, relative to 50 μM Trolox, DOPC vesicles, 37° C.) | relative antioxidant capacity ([2]; concentration 50 μM, reference arbitrarily assigned 1.0) | antioxidant capacity compared with Trolox [3]
O=C(O)CCCCC1CCSS1 (stereo not drawn) [ALA, α-Lipoic acid] | 5.19 ± 1.32 * ms^−1 · 10^3 | 3.98 ± 1.69 ms^−1 · 10^3 | 0.61 ± 0.26 | 0.29 ± 0.05 | – | – | – | – | –
lipoyl dioleoylglycerol [LDOG—SS—] | 0.43 ± 0.12 * ms^−1 · 10^3 | 0.31 ± 0.06 * ms^−1 · 10^3 | 0.09 ± 0.01 | 0.02 ± 0.002 | afforded little oxidation protection | – | – | – | –
O=C(O)CCCC[C@@H](S)CCS (racemic) [DHLA, dihydrolipoic acid] | 1.43 ± 1.25 ms^−1 · 10^3 | 0.48 ± 0.05 * ms^−1 · 10^3 | 1.95 ± 0.03 | 1.12 ± 0.02 | – | double | – | – | –
Cc1c(C)c2c(c(C)c1O)CCC(C)(C(=O)O)O2 (stereo not shown) [Trolox] | – | – | 0.80 ± 0.09 | 0.80 ± 0.08 | – | – | 0.98 ± 0.28 | 1.00 | –
dihydrolipoyl dioleoylglycerol [LDOG—SH] | 4.90 ± 0.90 * ms^−1 · 10^3 | 1.88 ± 0.01 ms^−1 · 10^3 | 2.46 ± 0.10 | 1.21 ± 0.04 | markedly extended the probe's fluorescent period | double | – | – | –
feruloyl dioleoylglycerol | – | – | – | – | – | – | – | – | slightly less
